Structures are written as SMILES.

7 compounds from patent publication US20140073651A1, “BENZAMIDE DERIVATIVES AS P2X7 RECEPTOR ANTAGONISTS” (Actelion Pharmaceuticals Ltd., priority 2011, published 2014) can be followed below.

For the experiment, the target named is T1, human recombinant P2X7 receptor (Homo sapiens, UniProt Q99572).
T1 construct: expressed in transfected cells
T1 sequence (Q99572 1-595): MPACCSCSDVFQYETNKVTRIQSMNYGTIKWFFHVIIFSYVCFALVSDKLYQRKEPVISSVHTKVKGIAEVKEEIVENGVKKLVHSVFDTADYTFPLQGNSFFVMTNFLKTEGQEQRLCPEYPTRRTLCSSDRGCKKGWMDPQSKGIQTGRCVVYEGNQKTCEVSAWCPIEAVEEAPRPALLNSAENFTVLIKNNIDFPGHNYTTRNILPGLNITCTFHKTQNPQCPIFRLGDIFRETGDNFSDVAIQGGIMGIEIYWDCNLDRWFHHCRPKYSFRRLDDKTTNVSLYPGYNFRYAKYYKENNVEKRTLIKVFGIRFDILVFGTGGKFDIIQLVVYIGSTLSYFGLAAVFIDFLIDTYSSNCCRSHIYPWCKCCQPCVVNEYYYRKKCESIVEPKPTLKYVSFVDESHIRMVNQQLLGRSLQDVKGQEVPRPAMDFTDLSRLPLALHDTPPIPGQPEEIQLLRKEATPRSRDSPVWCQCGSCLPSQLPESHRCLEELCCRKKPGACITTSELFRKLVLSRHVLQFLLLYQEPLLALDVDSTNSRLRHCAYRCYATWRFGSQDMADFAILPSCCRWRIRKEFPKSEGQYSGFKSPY
Kind of experiment: YO-PRO assay (YO-PRO-1 uptake) in HEK cells stably expressing P2X7. The class given is cell-based. To be noted: HEK-293 cells expressing human recombinant P2X7 receptor; ATP 250 μM, 90 minutes; YO-PRO-1 fluorescence (FLIPR tetra); read-out: IC50 (antagonistic activity with respect to the P2X7 receptor). In outline:
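Antagonist serially diluted (duplicates) on P2X7-expressing HEK cells in buffer with 0.5 μM YO-PRO-1; dye uptake followed on FLIPR Tetra over four time points. IC50 from maximum fluorescence intensity versus compound concentration.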

The IC50 is the point on the concentration scale where inhibition reaches its midpoint. Take `O=C(c1ccc(Cl)c(C(=O)NCC2(O)CCCCC2)c1)c1cc[nH]c(=O)n1` [Example 150, 2-Chloro-N-(1-hydroxy-cyclohexylmethyl)-5-(2-oxo-1,2-dihydro-pyrimidine-4-carbonyl)-benzamide]: the IC50 stood at 77 nM.

Regarding `O=C(NCC1(O)CCCCC1)c1cc(Oc2ccnc(Cl)c2)ccc1Cl` [Example 104, 2-Chloro-5-(2-chloro-pyridin-4-yloxy)-N-(1-hydroxy-cyclohexylmethyl)-benzamide], the IC50 was determined as 100 nM.

`CN(c1ccc(Cl)c(C(=O)NCC2(O)CCCCC2)c1)c1cncc(Cl)n1` [Example 81, 2-Chloro-5-[(6-chloro-pyrazin-2-yl)-methyl-amino]-N-(1-hydroxy-cyclohexylmethyl)-benzamide]: the IC50 was determined as 245 nM.

Turning to `CN(c1ccc(Cl)c(C(=O)NCC2(O)CCCCC2)c1)c1ccc(=O)[nH]n1` [Example 90, 2-Chloro-N-(1-hydroxy-cyclohexylmethyl)-5-[methyl-(6-oxo-1,6-dihydro-pyridazin-3-yl)-amino]-benzamide], the IC50 turned out to be 905 nM.

As to `CN(c1ccc(Cl)c(C(=O)NCC2(CO)CCCCC2)c1)c1ccnc(Cl)n1` [Example 55, 2-Chloro-5-[(2-chloro-pyrimidin-4-yl)-methyl-amino]-N-(1-hydroxymethyl-cyclohexylmethyl)-benzamide], the IC50 came out at 482 nM.

As for `CN(c1ccc(Cl)c(C(=O)NCC2(O)CCCCC2)c1)c1ccccn1` [Example 93, 2-Chloro-N-(1-hydroxy-cyclohexylmethyl)-5-(methyl-pyridin-2-yl-amino)-benzamide], the IC50 turned out to be 111 nM.

`CN(c1ccc(Cl)c(C(=O)N[C@H](CO)C2CCCCC2)c1)c1cc[nH]c(=O)n1` [Example 44, 2-Chloro-N—((S)-1-cyclohexyl-2-hydroxy-ethyl)-5-[methyl-(2-oxo-1,2-dihydro-pyrimidin-4-yl)-amino]-benzamide]: the IC50 stood at 33 nM.
